{
  "source": "patent US4020076A",
  "about": "“Novel phosphoryloxy-thiazoles” (priority 1974, dated 1977)",
  "format_in_all_cases": "in vivo",
  "key": {"Drosophila melanogaster": {"test_system": "Drosophila melanogaster", "assay": "Vapor activity against Drosophila melanogaster", "details": "inhaled or nasal, read-out: percentage of mortality", "procedure": "a. Activity against Drosophila melanogaster\nThis test measures the vapor activity of the compounds and the less than 48 hours old insects were placed in a Petri dish with a 10 cm diameter connected by a tergal screen to a crystallizer of the same diameter in which the test compound in acetone solution is placed. The said solution is evaporated after the insects have been placed and 3 tests with 25 insects were run for each concentration. The results are expressed in Table I as a percentage of mortality after 1, 2, 4 and 6 hours."}, "Sitophilus granarius": {"test_system": "Sitophilus granarius", "assay": "Topical application test against Sitophilus granarius", "details": "read-out: percent mortality", "procedure": "c. Test against Sitophilus granarius\nThis topical application test comprised preparing the test compounds in acetone solution at concentrations of 5000, 500 and 50 mg of the active compound per liter and 0.2 μl of the solutions were applied to the ventral thorax of 50 Sitophilus granarius for each concentration."}, "Musca domestica": {"test_system": "Musca domestica", "assay": "Topical application activity against Musca domestica", "details": "read-out: percent of mortality", "procedure": "d. Activity against Musca domestica\nThis topical application test consisted of placing a microliter of an acetone solution of the test product on the dorsal thorax of Musca domestica after having been put to sleep with ether. The insects were held at 20° C and 50% relative humidity and were fed milk and water."}, "Spodoptera littoralis": {"test_system": "Spodoptera littoralis", "assay": "Ingestion test against Spodoptera littoralis caterpillars", "details": "po, ingestion, read-out: percent of mortality", "procedure": "e. Activity against Spodoptera littoralis\nThis test was effected with Spodoptera littoralis caterpillars 1 to 1.5 cm long and an average of 10 days old. In this ingestion test, 4 ml of an acetone solution of the test products was placed on lettuce rings with an 8 mm diameter which were placed in closed plastic dishes with a 5 cm diameter. 15 caterpillars were placed in each dish and were held at 20° C and 50% relative humidity and were fed when the insects had eaten the treated lettuce ring."}, "Aedes aegypti larvae": {"test_system": "Aedes aegypti larvae", "assay": "Activity against Aedes aegypti larvae", "details": "for mortality at 0.25 µg/mL: 0.25 mg/l (10^-3 ppm); for mortality at 2.5 µg/mL: 2.5 mg/l (10^-2 ppm); for mortality at 25 µg/mL: 25 mg/l", "procedure": "f. Activity against Aedes aegypti larvae\n10 Aedes aegypti larvae in the IV stage in 49 ml of water were added to 200 ml of water and 1 ml of an acetone solution of the test product was added thereto."}, "Musca domestica larvae": {"test_system": "Musca domestica larvae", "assay": "Contact-ingestion test against Musca domestica larvae", "details": "read-out: percent of mortality", "procedure": "g. Activity against Musca domestica larvae\nThis contact-ingestion test consisted of placing 2 ml of an acetone solution of different concentrations of the test product on 1 g of bran placed in a watch glass and the solvent was evaporated. The treated bran was placed in a plastic dish and was admixed with 2 ml of milk. 20 3 to 4 day old larvae of Musca domestica were added to the bran and were held at 20° C and 30% relative humidity and 3 tests were conducted for each concentration."}, "[1]": {"test_system": "Leptinotarsa Decemlineata", "assay": "Activity against Leptinotarsa Decemlineata larvae", "details": "for mortality at 500 µg/mL: 50 g/hl; for mortality at 1000 µg/mL: 100 g/hl", "excerpt": "h. Activity againt Leptinotarsa Decemlineata\nEggplant leaves with about 40 cm^ 2 of surface area (10 × 4 cm) were cut out of untreated plants and were washed with water and dried before being immersed for 10 seconds in an acetone solution of the test product. After drying, the leaves were placed in a plastic ventilated dish and 10 larvae of Leptinotarsa Decemlineata in the fourth stage were placed thereon."}, "[2]": {"test_system": "Agrostis Segetum caterpillars", "assay": "Activity against Agrostis Segetum caterpillars", "procedure": "i. Activity against Agrostis Segetum caterpillars\nLarvae of Agrostis Segetum in the fifth stage were placed in small boxes whose bottom (26 cm on a side) is in the form of a square with a height of 20 cm. The boxes were filled with dirt to a height of 8 cm and 5 lettuce plants of about 15 cm high were planted and 10 caterpillars were placed in each box and after 3 hours, the boxes were each sprayed with 5 ml of an aqueous solution of the test product and the percent of efficacy is reported in Table IX."}, "[3]": {"test_system": "Ditylenchus Myceliophagus", "assay": "Acaricide activity, Ditylenchus Myceliophagus", "details": "24 h, 0.1 g/l, read-out: Percent of mortality after 24 hours", "procedure": "In an apparatus containing 10 ml of an aqueous solution of the test product, 0.5 ml of water containing about 2000 acariens of Ditylenchus Myceliophagus were added thereto and the percent of mortality was determined by a binocular magnifying glass after 24 hours."}, "[4]": {"details": "24 h, read-out: % of mortality after 24 H"}, "[5]": {"details": "48 h, read-out: % of mortality after 48 H"}, "[6]": {"details": "1 h, read-out: % of mortality after 1 H"}},
  "note": "Like-named read-outs stand apart in the source and are kept apart here.",
  "data": [
    {"smiles": "CCOc1nc(OP(=S)(OC)OC)c(C#N)s1", "note": "[Compound C, 2-ethoxy-4-dimethoxythiophosphoryloxy-5-cyano-thiazole]", "values": [
      {"measurement": "mortality at 5 ppm", "setting": "Drosophila melanogaster; 1 H", "result": 98, "unit": "%"},
      {"measurement": "mortality at 50 ppm", "setting": "Drosophila melanogaster; 1 H", "result": 100, "unit": "%"},
      {"measurement": "mortality at 500 ppm", "setting": "Drosophila melanogaster; 1 H", "result": 100, "unit": "%"},
      {"measurement": "mortality at 5 ppm", "setting": "Drosophila melanogaster; 4 H", "result": 100, "unit": "%"},
      {"measurement": "mortality at 50 ppm", "setting": "Drosophila melanogaster; 4 H", "result": 100, "unit": "%"},
      {"measurement": "mortality at 500 ppm", "setting": "Drosophila melanogaster; 4 H", "result": 100, "unit": "%"},
      {"measurement": "mortality at 5 ppm", "setting": "Drosophila melanogaster; 6 H", "result": 100, "unit": "%"},
      {"measurement": "mortality at 50 ppm", "setting": "Drosophila melanogaster; 6 H", "result": 100, "unit": "%"},
      {"measurement": "mortality at 500 ppm", "setting": "Drosophila melanogaster; 6 H", "result": 100, "unit": "%"},
      {"measurement": "mortality at 50 ppm", "setting": "Sitophilus granarius; 4 H", "result": 0, "unit": "%"},
      {"measurement": "mortality at 500 ppm", "setting": "Sitophilus granarius; 4 H", "result": 0, "unit": "%"},
      {"measurement": "mortality at 5000 ppm", "setting": "Sitophilus granarius; 4 H", "result": 100, "unit": "%"},
      {"measurement": "mortality at 50 ppm", "setting": "Sitophilus granarius; 24 H", "result": 0, "unit": "%"},
      {"measurement": "mortality at 500 ppm", "setting": "Sitophilus granarius; 24 H", "result": 54, "unit": "%"},
      {"measurement": "mortality at 5000 ppm", "setting": "Sitophilus granarius; 24 H", "result": 100, "unit": "%"},
      {"measurement": "mortality at 50 ppm", "setting": "Sitophilus granarius; 120 h, 5 Days", "result": 0, "unit": "%"},
      {"measurement": "mortality at 500 ppm", "setting": "Sitophilus granarius; 120 h, 5 Days", "result": 96, "unit": "%"},
      {"measurement": "mortality at 5000 ppm", "setting": "Sitophilus granarius; 120 h, 5 Days", "result": 100, "unit": "%"},
      {"measurement": "mortality at 500 ppm", "setting": "Musca domestica; 1 H, 500 ppm", "result": 100, "unit": "%"},
      {"measurement": "mortality at 2500 ppm", "setting": "Musca domestica; 1 H, 2500 ppm", "result": 100, "unit": "%"},
      {"measurement": "mortality at 5000 ppm", "setting": "Musca domestica; 1 H, 5000 ppm", "result": 100, "unit": "%"},
      {"measurement": "mortality at 500 ppm", "setting": "Musca domestica; 24 h", "result": 97, "unit": "%"},
      {"measurement": "mortality at 2500 ppm", "setting": "Musca domestica; 24 h", "result": 100, "unit": "%"},
      {"measurement": "mortality at 5000 ppm", "setting": "Musca domestica; 24 h", "result": 100, "unit": "%"},
      {"measurement": "mortality at 125 ppm", "setting": "Spodoptera littoralis; 1 H", "result": 0, "unit": "%"},
      {"measurement": "mortality at 250 ppm", "setting": "Spodoptera littoralis; 1 H", "result": 0, "unit": "%"},
      {"measurement": "mortality at 500 ppm", "setting": "Spodoptera littoralis; 1 H", "result": 0, "unit": "%"},
      {"measurement": "mortality at 125 ppm", "setting": "Spodoptera littoralis; 24 H", "result": 70, "unit": "%"},
      {"measurement": "mortality at 250 ppm", "setting": "Spodoptera littoralis; 24 H", "result": 80, "unit": "%"},
      {"measurement": "mortality at 500 ppm", "setting": "Spodoptera littoralis; 24 H", "result": 100, "unit": "%"},
      {"measurement": "mortality at 125 ppm", "setting": "Spodoptera littoralis; 48 H", "result": 70, "unit": "%"},
      {"measurement": "mortality at 250 ppm", "setting": "Spodoptera littoralis; 48 H", "result": 80, "unit": "%"},
      {"measurement": "mortality at 500 ppm", "setting": "Spodoptera littoralis; 48 H", "result": 100, "unit": "%"},
      {"measurement": "mortality at 0.25 µg/mL", "setting": "Aedes aegypti larvae; [4]", "result": 0, "unit": "%"},
      {"measurement": "mortality at 2.5 µg/mL", "setting": "Aedes aegypti larvae; [4]", "result": 0, "unit": "%"},
      {"measurement": "mortality at 25 µg/mL", "setting": "Aedes aegypti larvae; [4]", "result": 100, "unit": "%"},
      {"measurement": "mortality at 0.25 µg/mL", "setting": "Aedes aegypti larvae; [5]", "result": 0, "unit": "%"},
      {"measurement": "mortality at 2.5 µg/mL", "setting": "Aedes aegypti larvae; [5]", "result": 0, "unit": "%"},
      {"measurement": "mortality at 25 µg/mL", "setting": "Aedes aegypti larvae; [5]", "result": 100, "unit": "%"},
      {"measurement": "mortality at 500 ppm", "setting": "Musca domestica larvae; 48 H", "result": 43, "unit": "%"},
      {"measurement": "mortality at 5000 ppm", "setting": "Musca domestica larvae; 48 H", "result": 53, "unit": "%"},
      {"measurement": "mortality at 500 ppm", "setting": "Musca domestica larvae; 192 h, 8 Days", "result": 63, "unit": "%"},
      {"measurement": "mortality at 5000 ppm", "setting": "Musca domestica larvae; 192 h, 8 Days", "result": 73, "unit": "%"},
      {"measurement": "mortality at 500 µg/mL", "setting": "[1]; [6]", "result": 0, "unit": "%"},
      {"measurement": "mortality at 1000 µg/mL", "setting": "[1]; [6]", "result": 0, "unit": "%"},
      {"measurement": "mortality at 500 µg/mL", "setting": "[1]; [4]", "result": 40, "unit": "%"},
      {"measurement": "mortality at 1000 µg/mL", "setting": "[1]; [4]", "result": 100, "unit": "%"},
      {"measurement": "mortality at 500 µg/mL", "setting": "[1]; [5]", "result": 40, "unit": "%"},
      {"measurement": "mortality at 1000 µg/mL", "setting": "[1]; [5]", "result": 100, "unit": "%"},
      {"measurement": "Emax", "setting": "[2]; 72 h, 50 g/hl, read-out: % efficacy after 3 days", "result": 50, "unit": "%"},
      {"measurement": "Emax", "setting": "[2]; 72 h, 150 g/hl, read-out: % efficacy after 3 days", "result": 80, "unit": "%"},
      {"measurement": "Emax", "setting": "[2]; 72 h, read-out: % efficacy after 3 days, 100 g/hl", "result": 25, "unit": "%"},
      {"measurement": "Emax", "setting": "[2]; 120 h, 50 g/hl, read-out: % efficacy after 5 days", "result": 100, "unit": "%"},
      {"measurement": "Emax", "setting": "[2]; 120 h, 150 g/hl, read-out: % efficacy after 5 days", "result": 100, "unit": "%"},
      {"measurement": "Emax", "setting": "[2]; 120 h, read-out: % efficacy after 5 days, 100 g/hl", "result": 50, "unit": "%"},
      {"measurement": "Emax", "setting": "[2]; 168 h, 50 g/hl, read-out: % efficacy after 7 days", "result": 100, "unit": "%"},
      {"measurement": "Emax", "setting": "[2]; 168 h, 150 g/hl, read-out: % efficacy after 7 days", "result": 100, "unit": "%"},
      {"measurement": "Emax", "setting": "[2]; 168 h, read-out: % efficacy after 7 days, 100 g/hl", "result": 100, "unit": "%"},
      {"measurement": "mortality at 100 µg/mL", "setting": "[3]", "result": 66.8, "unit": "%"}
    ]}
  ]
}
